Data: patent US9926281B2 (priority 2014, dated 2018)
pIC50: −log10 of the molar value.

What was measured:
rnADAMTS-5 (1-564-6H) = rnADAMTS-5 (1-564-6H) (Rattus norvegicus, UniProt Q6TY19); details: read-out: Rat ADAMTS-5 potency IC50
human TACE = human TACE (Homo sapiens (Human), UniProt P78536); details: read-out: TACE potency IC50
human MMP13 = human MMP13 (Homo sapiens (Human), UniProt P45452); details: read-out: hMMP-13 potency IC50
Procedure: Human MMP13 is preactivated by incubated the enzyme in the same buffer complemented with 1 mM freshly prepared p-Aminophenylmercuric acetate (AMPA) for 1 hour at 37° C.

Sequence of human TACE (P78536 whole entry, looked up, change not shown): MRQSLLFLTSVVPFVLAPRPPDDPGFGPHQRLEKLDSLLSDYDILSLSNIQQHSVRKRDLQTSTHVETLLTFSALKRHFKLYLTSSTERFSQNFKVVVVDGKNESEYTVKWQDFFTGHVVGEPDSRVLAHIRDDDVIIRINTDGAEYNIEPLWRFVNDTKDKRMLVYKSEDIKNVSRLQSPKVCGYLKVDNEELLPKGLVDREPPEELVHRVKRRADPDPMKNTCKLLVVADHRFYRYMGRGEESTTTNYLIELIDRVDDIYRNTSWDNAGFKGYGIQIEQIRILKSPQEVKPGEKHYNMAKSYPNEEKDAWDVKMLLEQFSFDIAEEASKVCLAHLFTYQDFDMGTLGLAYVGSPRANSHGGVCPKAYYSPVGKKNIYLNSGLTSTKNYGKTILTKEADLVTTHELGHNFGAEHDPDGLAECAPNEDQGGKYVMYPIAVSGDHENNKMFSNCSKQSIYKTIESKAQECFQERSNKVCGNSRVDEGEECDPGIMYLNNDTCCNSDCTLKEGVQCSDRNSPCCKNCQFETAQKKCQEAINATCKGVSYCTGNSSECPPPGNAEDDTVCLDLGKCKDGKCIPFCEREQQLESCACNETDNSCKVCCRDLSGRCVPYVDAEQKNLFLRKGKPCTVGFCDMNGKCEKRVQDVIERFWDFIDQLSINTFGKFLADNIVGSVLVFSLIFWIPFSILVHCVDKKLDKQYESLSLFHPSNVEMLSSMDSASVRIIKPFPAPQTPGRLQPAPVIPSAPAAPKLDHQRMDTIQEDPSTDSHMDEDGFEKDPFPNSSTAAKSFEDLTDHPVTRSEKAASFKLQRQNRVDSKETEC

| SMILES | pIC50 (rnADAMTS-5 (1-564-6H)) | pIC50 (human TACE) | pIC50 (human MMP13) |
| --- | --- | --- | --- |
| O=C1NC(=O)C(CCC(=O)N2CCN(c3cccc(Cl)c3)CC2)(C2CC2)N1 (stereo not drawn) [compound 34, 5-[3-[4-(3-chlorophenyl)piperazin-1-yl]-3-oxo-propyl]-5-cyclopropyl-imidazolidine-2,4-dione] | 7.39 | < 5.40 | 5.49 |
| CC(C)C1(CCC(=O)N2CCN(c3cccc(Cl)c3)CC2)NC(=O)NC1=O (stereo not drawn) [compound 53, 5-[3-[4-(3-chlorophenyl)piperazin-1-yl]-3-oxo-propyl]-5-isopropyl-imidazolidine-2,4-dione] | 6.75 | < 5.40 | < 4.70 |
| Cc1ccc(Cl)cc1N1CCN(C(=O)CCC2(c3ccc(Cl)cc3)NC(=O)NC2=O)CC1 (stereo not drawn) [compound 75, 5-[3-[4-(5-chloro-2-methyl-phenyl)piperazin-1-yl]-3-oxo-propyl]-5-(4-chlorophenyl)imidazolidine-2,4-dione] | 6.85 | 6.26 | < 4.70 |
| Cc1c(Cl)cccc1N1CCN(C(=O)CCC2(C3CC3)NC(=O)NC2=O)CC1 (stereo not drawn) [compound 98, 5-[3-[4-(3-chloro-2-methyl-phenyl)piperazin-1-yl]-3-oxo-propyl]-5-cyclopropyl-imidazolidine-2,4-dione] | 7.09 | < 5.40 | < 4.70 |
| Cc1c(F)cccc1N1CCN(C(=O)CCC2(C3CC3)NC(=O)NC2=O)CC1 (stereo not drawn) [compound 99, 5-cyclopropyl-5-[3-[4-(3-fluoro-2-methyl-phenyl)piperazin-1-yl]-3-oxo-propyl]imidazolidine-2,4-dione] | 6.94 | < 4.83 | < 4.70 |
| Cc1c(Cl)cccc1N1CCN(C(=O)CCC2(c3cccnc3)NC(=O)NC2=O)CC1 (stereo not drawn) [compound 102, 5-[3-[4-(3-chloro-2-methyl-phenyl)piperazin-1-yl]-3-oxo-propyl]-5-(3-pyridyl)imidazolidine-2,4-dione] | 7.03 | 5.47 | < 4.70 |
| O=C1NC(=O)C(CCC(=O)N2CCN(c3cccc(F)c3)CC2)(c2cccnc2)N1 (stereo not drawn) [compound 112, 5-[3-[4-(3-fluorophenyl)piperazin-1-yl]-3-oxo-propyl]-5-(3-pyridyl)imidazolidine-2,4-dione] | 7.41 | < 5.40 | 5.73 |
| O=C1NC(=O)C(CCC(=O)N2CCN(c3cccc(F)c3)CC2)(C2CC2)N1 (stereo not drawn) [compound 115, 5-cyclopropyl-5-[3-[4-(3-fluorophenyl)piperazin-1-yl]-3-oxo-propyl]imidazolidine-2,4-dione] | 7.42 | < 4.70 | < 5.40 |
| Cc1ccc(F)cc1N1CCN(C(=O)CCC2(C3CC3)NC(=O)NC2=O)CC1 (stereo not drawn) [compound 116, 5-cyclopropyl-5-[3-[4-(5-fluoro-2-methyl-phenyl)piperazin-1-yl]-3-oxo-propyl]imidazolidine-2,4-dione] | 7.54 | < 5.33 | < 4.70 |
| CS(=O)(=O)c1ccc(C2(CCC(=O)N3CCN(c4cccc(Cl)c4)CC3)NC(=O)NC2=O)cc1 (stereo not drawn) [compound 124, 5-[3-[4-(3-chlorophenyl)piperazin-1-yl]-3-oxo-propyl]-5-(4-methylsulfonylphenyl)imidazolidine-2,4-dione] | 7.43 | 6.06 | 5.89 |
| C[C@H]1CN(C(=O)CCC2(C3CC3)NC(=O)NC2=O)CCN1c1ccccc1 (stereo partly drawn) [compound 135, 5-cyclopropyl-5-[3-[(3S)-3-methyl-4-phenyl-piperazin-1-yl]-3-oxo-propyl]imidazolidine-2,4-dione] | 6.90 | < 4.70 | < 4.70 |
| C[C@H]1CN(C(=O)CCC2(c3cccnc3)NC(=O)NC2=O)CCN1c1ccccc1 (stereo partly drawn) [compound 136, 5-[3-[(3S)-3-methyl-4-phenyl-piperazin-1-yl]-3-oxo-propyl]-5-(3-pyridyl)imidazolidine-2,4-dione] | 6.62 | < 4.70 | < 4.70 |
